Measured values: patent publication EP0263214A1, “Tetrapeptide methyl ketone inhibitors of viral proteases” (priority 1986, dated 1988)
Where two headings read alike, the source gives them in different places. * marks the point of attachment. CH2Cl = ClC*

Assays:
chymotrypsin = conditions: inhibitor concentration of 600 ug/rnL; cited from earlier work
human rhinovirus type 1A = format: cell-based
[1] = tested on: human poliomyelitis virus type 2; format: cell-based
subtilisin BPN' = conditions: compared within a series of peptide chloromethyl ketones; cited from earlier work
Poliovirus type 2 = format: cell-based
rhinovirus type 1A = format: cell-based

In the case of Ac-Leu-Leu-PheCH3, the inhibition of chymotrypsin (chymotrypsin) is given as “no inhibition was observed”.
For `CC(=O)[C@H](CC(C)C)NC(=O)[C@H](C)NC(=O)CNC(=O)[C@H](Cc1ccccc1)NC(=O)OC(C)(C)C` [Boc-Phe-Gly-Ala-LeuCH3, reference compound], the “activity in the viral cleavage assay” value (human rhinovirus type 1A) was “failed to show activity” and the “activity in the viral cleavage assay” value [1] was “failed to show activity”.
With `COC(=O)CCC(=O)N[C@@H](Cc1ccccc1)C(=O)NCC(=O)N[C@@H](CC(C)C)C(=O)N[C@@H](CC(C)C)C(C)=O` [MeOSuc-Phe-Gly-Leu-LeuCH3] the “activity in the viral cleavage assay” value ([1]; 50 µg/mL) was “active”.
In the case of “acetyl-L-phenylalanyl-L-glycyl-L-alanyl-L-leucyl chloromethyl ketone (Ac-FGAL-CH2Cl; SMILES CC(=O)N[C@@H](Cc1ccccc1)C(=O)NCC(=O)N[C@@H](C)C(=O)N[C@@H](CC(C)C)C(=O)CCl) [Ac-Phe-Gly-Ala-LeuCH2CI]”, the “inhibition of subtilisin BPN'” value (subtilisin BPN') is given as “fastest inhibitor”.
In the case of `CC(=O)[C@H](CC(C)C)NC(=O)[C@H](C)NC(=O)CNC(=O)[C@H](Cc1ccccc1)NC(=O)OCc1ccccc1` [Z-Phe-Gly-Ala-LeuCH3], the cytotoxicity (HeLa cells) is reported as “No cytotoxicity was observed”, the plaque reduction (Poliovirus type 2) is reported as > 90% and the plaque reduction (rhinovirus type 1A) is reported as > 90%. For the same compound, the “activity in the viral cleavage assay” value ([1]; 50 µg/mL) was “active”.
